A short description of one data set: in vitro. The following applies: for remaining at 5 h: isolated enzyme pronase.
For a further data set, the target named is T1, Nodal (Homo sapiens, UniProt Q96S42).
T1 construct: host or cells: added to embryonic carcinoma P19 cells
T1 sequence (Q96S42 238-347): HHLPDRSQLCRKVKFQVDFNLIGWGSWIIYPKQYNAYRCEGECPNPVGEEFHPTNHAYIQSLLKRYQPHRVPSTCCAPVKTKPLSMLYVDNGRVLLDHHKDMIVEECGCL
Nature of the data set: Inhibition of Nodal-induced Smad2 phosphorylation in P19 cells (Western blot, anti-phospho Smad antibody). The note with it: for ability to antagonize the signaling function of protein Nodal: carcinoma cells. Format: cell-based. As for the experimental part: To validate the binding ability of the predicted ligands, we tested the ability of the bicycles to inhibit a known signaling event induced by Nodal. Specifically, we employed Western blot with anti-phospho Smad antibody to detect Nodal-induced phosphorylation of effector protein Smad2 in embryonic carcinoma P19 cells. FIG. 17a describes that treatment of P19 cells with 100 ng/mL Nodal for 1 hour in Dulbecco's Modified Eagles Media (DMEM) supplemented with 2.5% fetal bovine serum (FBS)+7.5% bovine serum albumin (BSA) induces increase in pSmad2 intensity. Nodal-induced increase in pSmad is abrogated when P19 cells are incubated with 100 ng/mL Nodal and known kinase inhibitors SB-431542. […] The bicyclic peptides serve as antagonists of Nodal at 100 micromolar concentration.
Background: A western blot detects proteins with antibodies after separation by electrophoresis.

Numbered stars: 1 amine (or outer) side, 2 acyl side, 3 side chain; on linkers, the order of the positions; unused ones are H or OH. Bridge positions count the residues as written; N and C are the ends. Ends that are not written are not given here. Peptide text beside a SMILES is read from it. X1 = O=C(C=NOCCCCCCOc1cc(C[*:2])cc(C[*:3])c1)[*:1]; X2 = O=C(C=NOCc1cc(C[*:2])cc(C[*:3])c1)[*:1]; TSL6 = not defined here

Procedure for in vitro: The mixture was analyzed by ion-selective LCMS. […] Linear, disulfide and two bicycle compounds made from TSL-1 and TSL-6 linker were incubated with Pronase™ for the indicated period of time (up to 5 hours). The reaction was diluted and analyzed by Ion selective MS-UPLC. The numbers indicate % of intact compound remaining after 5 hours of digestion.
In another rigorous stability test, an aggressive cocktail of endo- and exoproteases (Pronase) were used to digest linear sequence [sequence]

In the data set “in vitro”, `CC(C)C[C@@H]1NC(=O)[C@H](Cc2ccc(O)cc2)NC(=O)[C@@H]2CSCc3cc(cc(c3)OCCCCCCON=CC(=O)N[C@@H](Cc3c[nH]c4ccccc34)C(=O)N[C@@H](CC(=O)O)C(=O)N[C@@H](Cc3ccc(O)cc3)C(=O)N[C@@H](CCCNC(=N)N)C(=O)N[C@@H](CCC(=O)O)C(=O)N2)CSC[C@@H](C(=O)O)NC(=O)[C@H](CCC(=O)O)NC1=O` (WDYRECYLEC-OH; linker N-6-10 via X1; C-terminus assumed) came in with a share remaining at 5 h of 68 ± 14%.

In “in vitro” (Streptomyces griseus), `CC(C)C[C@@H]1NC(=O)[C@H](Cc2ccc(O)cc2)NC(=O)[C@@H]2CSCc3cc(cc(c3)CSC[C@@H](C(=O)O)NC(=O)[C@H](CCC(=O)O)NC1=O)CON=CC(=O)N[C@@H](Cc1c[nH]c3ccccc13)C(=O)N[C@@H](CC(=O)O)C(=O)N[C@@H](Cc1ccc(O)cc1)C(=O)N[C@@H](CCCNC(=N)N)C(=O)N[C@@H](CCC(=O)O)C(=O)N2` (WDYRECYLEC-OH; linker N-6-10 via X2; C-terminus assumed) had a half-life of roughly 24 h. The amount remaining at 5 h in the data set “in vitro” turned out to be 82 ± 13%.

With `NC(=O)c1ccc(-c2nc(-c3ccc4c(c3)OCO4)c(-c3ccccn3)[nH]2)cc1` [SB-431542, reference compound], the “Nodal-induced increase in pSmad with known kinase inhibitor” value on Nodal (P19 cells, 100 ng/mL Nodal, inhibitor concentration not given) is recorded as “abrogated”.

Compound `CC(C)C[C@H](NC(=O)[C@H](Cc1ccc(O)cc1)NC(=O)[C@H](CS)NC(=O)[C@H](CCC(=O)O)NC(=O)[C@H](CCCNC(=N)N)NC(=O)[C@H](Cc1ccc(O)cc1)NC(=O)[C@H](CC(=O)O)NC(=O)[C@H](Cc1c[nH]c2ccccc12)NC(=O)[C@@H](N)CO)C(=O)N[C@@H](CCC(=O)O)C(=O)N[C@@H](CS)C(=O)O` [reference compound] (H-SWDYRECYLEC-OH; N-terminus and C-terminus assumed) yielded a share remaining at 5 h in “in vitro” of 0.4 ± 0.1%.

Regarding `CC(C)C[C@@H]1NC(=O)[C@H](Cc2ccc(O)cc2)NC(=O)[C@@H](NC(=O)[C@H](CCC(=O)O)NC(=O)[C@H](CCCNC(=N)N)NC(=O)[C@H](Cc2ccc(O)cc2)NC(=O)[C@H](CC(=O)O)NC(=O)[C@H](Cc2c[nH]c3ccccc23)NC(=O)[C@@H](N)CO)CSSC[C@@H](C(=O)O)NC(=O)[C@H](CCC(=O)O)NC1=O` [reference compound] (H-SWDYRECYLEC-OH; disulfide 7-11; N-terminus and C-terminus assumed), the fraction remaining at 5 h in the data set “in vitro” is 0.9 ± 0.4%.

For the compound “SPCQRGHMFC (linker (positions not given here) via TSL6; reading uncertain; also: bicyclised with TSL6 linker) [bicyclic peptide 7]”, in the data set with Nodal, the “ability to antagonize the signaling function of protein Nodal” value is recorded as “have the ability to antagonize”.

Turning to “SYCKRAHKNC (linker (positions not given here) via TSL6; reading uncertain; also: bicyclised with TSL6 linker) [bicyclic peptide 11]”, the “ability to antagonize the signaling function of protein Nodal” value with Nodal was “have the ability to antagonize”.

A word on the amount remaining: it is what is left of the initial amount, in per cent. Low readings indicate more turnover, high ones less turnover. Broadly, the half-life is the time needed for the level to fall by half in the phase considered. Higher therefore signals slow loss.

The values are drawn from patent US12391939B2, “Genetically-encoded bicyclic peptide libraries” (THE GOVERNORS OF THE UNIVERSITY OF ALBERTA, priority 2018, dated 2025).
